Results as given in ChEMBL document CHEMBL1201862, “PubChem BioAssay data set” (2004).
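Five compound concentrations were applied to cells in 96-well plates for 48 hours; endpoints were derived by simple linear interpolation of the resulting dose-response curve. GI50 marks 50% less growth.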 Activity calls are given as the source filed them. Cut-off read from the data, not from the text of the source: active = GI50 up to about 1.1 µM and inactive = higher.

Columns and labels:
Experiment in all cases: NCI-60 cell line screen, 48 h
DU-145 = test system: DU-145
HCT-116 = test system: HCT-116
Hs-578T = test system: Hs-578T
HCC 2998 = test system: HCC 2998
SK-MEL-28 = test system: SK-MEL-28
ACHN = test system: ACHN
CAKI-1 = test system: CAKI-1
BT-549 = test system: BT-549
NCI/ADR-RES = test system: NCI/ADR-RES
K562 = test system: K562
HOP-92 = test system: HOP-92
NCI-H226 = test system: NCI-H226
CCRF-CEM = test system: CCRF-CEM
MDA-MB-231 = test system: MDA-MB-231
OVCAR-8 = test system: OVCAR-8
SN12C = test system: SN12C
M14 = test system: M14
RXF 393 = test system: RXF 393
Malme-3M = test system: Malme-3M
SF-539 = test system: SF-539

Measured: GI50

CC(O)CN1c2ccccc2Sc2ccc(Cl)cc21 (stereo not given)
inactive: DU-145 > 10 µM | HCT-116 > 10 µM | Hs-578T > 10 µM | HCC 2998 > 10 µM | SK-MEL-28 > 10 µM | ACHN > 10 µM | CAKI-1 > 10 µM | BT-549 > 10 µM | NCI/ADR-RES > 10 µM | K562 > 10 µM | HOP-92 > 10 µM | NCI-H226 > 10 µM | CCRF-CEM > 10 µM | MDA-MB-231 > 10 µM | OVCAR-8 > 10 µM | SN12C > 10 µM | M14 > 10 µM | RXF 393 > 10 µM | Malme-3M > 10 µM | SF-539 > 10 µM
